Laboratory results from US20230322722A1, “MODULATORS OF MYC FAMILY PROTO-ONCOGENE PROTEIN” (Nalo Therapeutics, priority 2020, published 2023).

Columns and labels:
Type in all cases: cell-based
[1] = molecular target: T1, MycC protein (Homo sapiens, UniProt P01106); assay: Degradation of MycC protein, Western blot, L-363 cells (Example 160); settings: for inhibition at 2 µM: 6 h
T1 construct: either 2×10^6 of L-363 (human leukemia cell line) or SKNBE2 (neuroblastoma cell line) cells; endogenous in cells; host or cells: L-363 / L363 human leukemia cells
Experimental: (§1) In a T150 flask was plated either 2×10^6 of L-363 (human leukemia cell line) or SKNBE2 (neuroblastoma cell line) cells in a total of 30 mL containing Roswell Park Memorial Institute (RPMI) 1640 Medium (Thermo Fisher, Cat. #11875-085), 10% Fetal Bovine Serum (FBS, Thermo Fisher: Cat. #10437-028), 1% Penicillin/streptomycin (Thermo Fisher: Cat. #10378016), and 1% Amophotericin B (Thermo Fisher, Cat. #15290026). The cells were split every 72 hours by reseeding the L-363 or SKNBE2 cells, and the passage number was noted. It is noteworthy that cell cultures that were above 40 passages were not used, and most experiments were done with cells of less than 30 passages.
(§2) In a 6-well cell culture plate, a total of 3 mL of either 1×10^6 cells/mL of L-363 or SKNBE2 cells were seeded, resulting in a total of 3×10^6 cells per well. To each well containing 3 mL of either L-363 or SKNBE2 cell line was added 6 uL of MycN modulating compound (1 mM) and the resulting plate was shaken from left to right, and not swirled. After 6 hours, the cells were placed in a 15 mL falcon tube and spun at 500 Gs at 4° C. in a swinging bucket centrifuge. The medium was then carefully removed without disturbing the pellet. The pellet was then washed with 3 mLs of chilled phosphate buffered saline (PBS) and subjected to the spin cycle. PBS was then removed and the pellet was lysed in 200 uL of radioimmunoprecipitation (RIPA) lysis buffer (Thermo Fisher: Cat. #899000) that is supplemented with protease and phosphatase inhibitors (Thermo Fisher: Cat. #A32959). The cell lysate was then subjected to spinning in a centrifuge for 10 minutes at 13000 G at 4° C. The supernatant was then carefully transferred to a fresh eppendorf tube without disturbing the pellet (˜180 uL). The protein concentration of the cell lysate was then determined by using a bicinchoninic acid (BCA assay) according to manufacturer's protocol (Thermo Fisher: Cat. #23227).
(§3) Cell lysate, approximately 25 ug-30 ug, was loaded per well in a 4-20% polyacrylamide gel (Biorad. Cat. #5671094). After running the dye front off of the gel, the gel was transferred to a nitrocellulose membrane (Biorad: Cat. #1704159) using the transblot turbo system (Biorad: Cat. #1704150) according to manufacturer's protocol. After transferring for 30 minutes, the membrane was blocked with 5% BSA for 1 hour at room temperature. The BSA was then washed off and the primary antibody of choice (1:500) was added, and the membrane was incubated with the primary antibody at 4° C. for overnight. The next morning, the primary antibody was removed and the membrane was washed with 1×-TBST for 10 minutes and repeated three more times. Following the last wash, a secondary antibody (Molecular Devices. Cat. #R8209 or R8208) was added at 1:5000 dilution and incubated for 1 hour at room temperature. Following the incubation with the secondary antibody, the membrane was washed with 1×-TBST for 10 minutes and repeated three more times. Following the last wash, the membrane was washed with de-ionized water twice and dried for at least two hours. Once the membrane is completely dry, the Molecular Devices Spectra Max western system was used to observe the bands. The western image was saved and the band density was measured with ImageJ software.

[2] = molecular target: T2, MycN protein (Homo sapiens, UniProt P04198); assay: Degradation of MycN protein, Western blot, SKNBE2 cells (Example 160)
T2 construct: either 2×10^6 of L-363 (human leukemia cell line) or SKNBE2 (neuroblastoma cell line) cells; endogenous in cells; host or cells: SKNBE2 / SK-N-BE(2) neuroblastoma cells
T2 sequence (P04198 1-464): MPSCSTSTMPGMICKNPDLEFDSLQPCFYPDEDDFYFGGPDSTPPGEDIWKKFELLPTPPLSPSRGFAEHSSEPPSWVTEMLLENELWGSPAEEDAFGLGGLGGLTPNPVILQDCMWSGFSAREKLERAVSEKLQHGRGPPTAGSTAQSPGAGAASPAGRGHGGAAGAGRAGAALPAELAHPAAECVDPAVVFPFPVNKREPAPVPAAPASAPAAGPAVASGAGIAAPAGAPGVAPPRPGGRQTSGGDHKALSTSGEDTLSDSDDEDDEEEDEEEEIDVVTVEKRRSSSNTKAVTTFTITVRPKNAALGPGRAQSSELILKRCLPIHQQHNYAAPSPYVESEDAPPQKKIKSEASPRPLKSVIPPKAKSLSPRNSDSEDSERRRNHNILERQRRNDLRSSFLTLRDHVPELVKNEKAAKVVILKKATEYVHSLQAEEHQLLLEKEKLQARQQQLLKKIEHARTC
Experimental: as §1, §2, §3

[3] = molecular target: T3, MycN protein (n-myc) (Homo sapiens, UniProt P04198); assay: Degradation of MycN protein, 24 h treatment, JESS Western, SK-N-BE(2) cells (Example 161); settings: SKNBE2 cells
T3 construct: either 2×10^6 of L-363 (human leukemia cell line) or SKNBE2 (neuroblastoma cell line) cells; endogenous in cells; host or cells: SKNBE2 / SK-N-BE(2) neuroblastoma cells
T3 sequence (P04198 1-464): T2 sequence (P04198 1-464)
Experimental: (§4) For L363 cells (suspension), 1E6 cells were plated into each well of a 6 well plate. For SK-N-BE(2) cells (adherent), 5E5 cells were plated into each well of a 6 well dish. […] All compounds were diluted to 10 mM in DMSO. Cells were treated with the compound for 24 hrs, then for both cell types, media containing cells were removed from wells into a 15 ml centrifuge tube, and remaining adherent SK-N-BE(2) cells were also scraped from the wells into the appropriate tubes. Tubes were centrifuged, cells were washed with PBS then re-centrifuged to pellet cells. A RIPA buffer cocktail was added to the cells on ice for 5 mins. Cell lysates were clarified by centrifugation and stored at −80 degrees until required. BCA assay was performed on each lysate to determine the protein concentration.
(§5) For validation studies of antibodies, lysates and antibodies were used at a number of concentrations (Lysates: 2, 1, 0.2 mg/ml; Antibodies: 1 in 50, 1 in 200 dilution). Once an appropriate lysate concentration and antibody concentration was determined, samples were screened in the JESS technology (Protein Simple, San Jose, CA—https://www.proteinsimple.com/jess.html).
(§6) Target protein antibodies (n-myc and c-myc) were detected in the chemi-luminescence channel and loading controls (tubulin and GAPDH) were detected using a Near Infra Red (NIR) labeled secondary antibody.
(§7) For SK-N-EB2 adherent cells, 5E5 cells in 1.9 mls media were plated into 6 well dishes and incubated for 24 hrs. […] Cells were scrapped off the plate, centrifuged, washed with PBS, centrifuged, then a RIPA buffer cocktail added to the cells (100 ul), centrifuged and stored at −80 for later analysis. For L363 suspension cells, 1E6 cells were plated into […] (950 ul media) and incubated for 24 hrs. […] Cells were aspirated into tubes, centrifuged, washed with PBS, centrifuged, then a RIPA buffer cocktail added to the cells (100 ul), centrifuged and stored at −80 for later analysis.
(§8) For Western blot, a BCA (total protein) assay was run on all samples, these were then run in batches of 5 compounds plus control (DMSO) on each Western blot run—n-myc and c-myc were run in separate experiments in the chemiluminescence channel. Both tubulin and GAPDH were run as loading controls in all lanes in the near infra red channel.

[4] = molecular target: T4, MycC protein (c-myc) (Homo sapiens, UniProt P01106); assay: Degradation of MycC protein, 24 h treatment, JESS Western, L363 cells (Example 161); settings: L-363 cells
T4 construct: either 2×10^6 of L-363 (human leukemia cell line) cells; endogenous in cells; host or cells: L-363 / L363 human leukemia cells
Experimental: as §4, §5, §6, §7, §8

T4 sequence (P01106 whole entry): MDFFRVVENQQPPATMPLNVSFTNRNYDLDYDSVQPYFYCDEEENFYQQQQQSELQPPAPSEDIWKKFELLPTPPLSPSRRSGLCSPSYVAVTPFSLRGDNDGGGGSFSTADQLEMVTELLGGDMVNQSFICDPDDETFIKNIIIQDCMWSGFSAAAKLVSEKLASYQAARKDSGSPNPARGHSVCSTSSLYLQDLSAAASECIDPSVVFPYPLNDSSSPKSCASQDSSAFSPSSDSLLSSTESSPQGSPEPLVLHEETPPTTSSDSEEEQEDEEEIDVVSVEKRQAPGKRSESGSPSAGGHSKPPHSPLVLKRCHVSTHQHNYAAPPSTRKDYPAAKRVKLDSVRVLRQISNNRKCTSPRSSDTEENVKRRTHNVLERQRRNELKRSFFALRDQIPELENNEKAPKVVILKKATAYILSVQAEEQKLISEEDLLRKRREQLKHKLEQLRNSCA
T1 sequence (P01106 whole entry): as above

CN(c1nccc(Nc2cc(C3CC3)[nH]n2)n1)[C@H]1CC[C@H](NC(=O)C2CCCC(C(F)(F)F)C2)CC1 (stereo partly shown) [113 F1]
inhibition at 2 µM [1]: 50 to 79%
% Degradation of MycN (SKNBE2) 6 h, 2 μM [2]: * (degradation <20%)

CN(c1nccc(Nc2cc(C3CC3)[nH]n2)n1)[C@H]1CC[C@H](NC(=O)C2CCCC(C(F)(F)F)C2)CC1 (stereo partly shown) [113 F2]
% Degradation of MycC (L-363) 6 h, 2 μM [1]: *** (degradation 50-79%)
% Degradation of MycN (SKNBE2) 6 h, 2 μM [2]: *** (degradation 50-79%)

CN(c1nccc(Nc2cc(C3CC3)[nH]n2)n1)C1CCN(CC(=O)Nc2cccc(C(F)(F)F)c2)CC1 [Compound 1, 2-(4-((4-((5-cyclopropyl-1H-pyrazol-3-yl)amino)pyrimidin-2-yl)(methyl)amino)piperidin-1-yl)-N-(3-(trifluoromethyl)phenyl)acetamide]
inhibition at 2 µM [1]: 80 to 100%
inhibition at 2 µM ([2]; 6 h): 50 to 79%

CN(c1nccc(Nc2cc(C3CC3)[nH]n2)n1)C1CCN(CC(=O)NC2Cc3ccc(C#N)cc3C2)CC1 (stereo not shown) [Compound 2, N-(5-cyano-2,3-dihydro-1H-inden-2-yl)-2-(4-((4-((5-cyclopropyl-1H-pyrazol-3-yl)amino)pyrimidin-2-yl)(methyl)amino)piperidin-1-yl)acetamide]
inhibition at 2 µM [1]: 80 to 100%
inhibition at 2 µM ([2]; 6 h): 80 to 100%

CN(c1nccc(Nc2cc(C3CC3)[nH]n2)n1)C1CCN(CC(=O)Nc2cccc(S(C)(=O)=O)c2)CC1 [Compound 3, 2-(4-((4-((5-cyclopropyl-1H-pyrazol-3-yl)amino)pyrimidin-2-yl)(methyl)amino)piperidin-1-yl)-N-(3-(methylsulfonyl)phenyl)acetamide]
inhibition at 2 µM [1]: 80 to 100%
inhibition at 2 µM ([2]; SKNBE2, 6 h): 50 to 79%

CN(c1cc(C2CC2)[nH]n1)c1ccnc(N(C)C2CCN(CC(=O)Nc3cccc(C(F)(F)F)c3)CC2)n1 [Compound 4, 2-(4-((4-((5-cyclopropyl-1H-pyrazol-3-yl)(methyl)amino)pyrimidin-2-yl)(methyl)amino)piperidin-1-yl)-N-(3-(trifluoromethyl)phenyl)acetamide]
inhibition at 2 µM [1]: 20 to 49%
inhibition at 2 µM ([2]; SKNBE2, 6 h): < 20%

CS(=O)(=O)c1cccc(NC(=O)CN2CCC(Nc3nccc(Nc4cc(C5CC5)[nH]n4)n3)CC2)c1 [Compound 6, 2-(4-((4-((5-cyclopropyl-1H-pyrazol-3-yl)amino)pyrimidin-2-yl)amino)piperidin-1-yl)-N-(3-(methylsulfonyl)phenyl)acetamide]
inhibition at 2 µM [1]: 80 to 100%
inhibition at 2 µM ([2]; 6 h): 50 to 79%

CN(c1nccc(Nc2cc(C3CC3)[nH]n2)n1)C1CCN(CC(=O)Nc2cn(C)nn2)CC1 [Compound 8, 2-(4-((4-((5-cyclopropyl-1H-pyrazol-3-yl)amino)pyrimidin-2-yl)(methyl)amino)piperidin-1-yl)-N-(1-methyl-1H-1,2,3-triazol-4-yl)acetamide]
inhibition at 2 µM [1]: 80 to 100%
inhibition at 2 µM ([2]; SKNBE2, 6 h): 50 to 79%

CC(C(=O)Nc1cccc(S(C)(=O)=O)c1)N1CCC(N(C)c2nccc(Nc3cc(C4CC4)[nH]n3)n2)CC1 (stereo not shown) [Compound 9]
inhibition at 2 µM [1]: 80 to 100%
inhibition at 2 µM ([2]; 6 h): 80 to 100%

CN(c1nccc(Nc2cc(C3CC3)[nH]n2)n1)C1CCN(CC(=O)Nc2cn(C3COC3)cn2)CC1 [Compound 10, 2-(4-((4-((5-cyclopropyl-1H-pyrazol-3-yl)amino)pyrimidin-2-yl)(methyl)amino)piperidin-1-yl)-N-(1-(oxetan-3-yl)-1H-imidazol-4-yl)acetamide]
inhibition at 2 µM [1]: 80 to 100%
inhibition at 2 µM ([2]; SKNBE2, 6 h): 50 to 79%

CN1CCC(Nc2nccc(Nc3cc(C4CC4)[nH]n3)n2)CC1 [Compound 37, N4-(5-Cyclopropyl-1H-pyrazol-3-yl)-N2-(1-methylpiperidin-4-yl)pyrimidine-2,4-diamine]
inhibition at 1 µM [3]: < 20%
inhibition at 3 µM [3]: 20 to 49%
inhibition at 6 µM [3]: 50 to 79%
inhibition at 3 µM [4]: < 20%
inhibition at 6 µM [4]: 80 to 100%

CN(c1nccc(Nc2cc(C3CC3)[nH]n2)n1)C1CCN(C2CC2)CC1 [Compound 38, N4-(5-Cyclopropyl-1H-pyrazol-3-yl)-N2-(1-cyclopropylpiperidin-4-yl)-N2-methylpyrimidine-2,4 diamine]
inhibition at 0.5 µM [3]: 20 to 49%
inhibition at 1 µM [3]: 50 to 79%
inhibition at 3 µM [3]: 80 to 100%
inhibition at 6 µM [3]: 80 to 100%
inhibition at 0.5 µM [4]: 50 to 79%
inhibition at 1 µM [4]: 80 to 100%
inhibition at 3 µM [4]: 80 to 100%
inhibition at 6 µM [4]: 80 to 100%

CN(c1nccc(Nc2cc(C3CC3)[nH]n2)n1)C1CCN(Cc2cccc(S(C)(=O)=O)c2)CC1 [Compound 39, N4-(5-Cyclopropyl-1H-pyrazol-3-yl)-N2-methyl-N2-(1-(3-(methylsulfonyl)benzyl)piperidin-4-yl)pyrimidine-2,4-diamine]
inhibition at 3 µM [3]: 80 to 100%
inhibition at 6 µM [3]: 80 to 100%
inhibition at 1 µM [4]: 50 to 79%
inhibition at 3 µM [4]: 80 to 100%
inhibition at 6 µM [4]: 80 to 100%

CN(c1nccc(Nc2cc(C3CC3)[nH]n2)n1)C1CCN(Cc2cc(F)cc(F)c2)CC1 [Compound 40, N4-(5-Cyclopropyl-1H-pyrazol-3-yl)-N2-(1-(3,5-difluorobenzyl)piperidin-4-yl)-N2-methylpyrimidine-2,4-diamine]
inhibition at 0.5 µM [3]: < 20%
inhibition at 1 µM [3]: 20 to 49%
inhibition at 3 µM [3]: 80 to 100%
inhibition at 6 µM [3]: 80 to 100%
inhibition at 0.5 µM [4]: < 20%
inhibition at 1 µM [4]: 80 to 100%
inhibition at 3 µM [4]: 80 to 100%
inhibition at 6 µM [4]: 80 to 100%
